Results reported in paper PMC6615261, “Repurposing Azithromycin and Rifampicin Against Gram-Negative Pathogens by Combination With Peptidomimetics” (Frontiers in Cellular and Infection Microbiology, 2019).

test system: MDR E. coli ST131; experiment: Screening of peptidomimetic-antibiotic combinations (growth / growth inhibition); assay type: cell-based, Escherichia coli; design: key to Growth in combination with RIF / Growth in combination with AZM: Growth (+); growth inhibition (–); settings: peptidomimetic 0.5 μM + azithromycin 1 μg/mL
Protocol: (§1) Minimal inhibitory concentrations (MICs) of peptidomimetics, antibiotics and their combinations were determined by broth microdilution according to the Clinical Laboratory Standards Institute performance standards (Clinical and Laboratory Standards Institute, [2013]). […] Since rifampicin and azithromycin mainly are used to treat infections with Gram-positive pathogens only CLSI clinical breakpoints were available for such bacteria. […] Potentiation of additional antibiotics by peptidomimetics was determined by using commercial 96-well plates containing varied concentrations of standard antibiotics (COMPAN1F; Trek Diagnostic Systems Inc.). The peptidomimetics were added immediately prior to inoculation with pathogen, and then MICs were determined as above. The MICs of peptidomimetic/antibiotic combinations were determined according to the method above, and the concentration ratios were selected based upon checkerboard results with 2:1 and 1:4 ratio of peptidomimetic with rifampicin or azithromycin, respectively. Minimal bactericidal concentrations (MBCs) were determined by using growth-curve assay plates. MIC plates were prepared as above, and then the plates were incubated at 37°C with continuous shaking. Growth was recorded at 10 min intervals as optical density (OD) at 600 nm during 24 h. At 24 h, for wells without growth, a sample was diluted 10-fold in sterile saline (0.9% sodium chloride) and plated onto MHA, following CLSI guidelines (Clinical and Laboratory Standards Institute, [1999]).

Row | Substance | Growth in combination with AZM
1 | Ac-(hArg-βNchx)6-NH2 [Peptidomimetic 7] | +
2 | Ac-(hArg-βNchx-Lys-βNspe)3-NH2 [Peptidomimetic 8] | +
3 | Ac-(hArg-βNspe)6-(Trp)2-NH2 [Peptidomimetic 16] | +
4 | Ac-(hArg-βNspe)7-NH2 [Peptidomimetic 4] | +
5 | Ac-[(S)-Aoc]-(Lys-βNPhe)6-NH2 [Peptidomimetic 41] | –
6 | Cin-(Lys-Phe)8-NH2 [Peptidomimetic 24] | +
7 | G(NLys)W(NLys)2II(NLys)VA(NLys)-NH2 [Peptidomimetic 31] | +
8 | Lau-(Lys-βNPhe)6-NH2 [Peptidomimetic 37] | +
9 | Lau-Dap(Lau)-(Lys-βNspe-hArg-βNspe)3-NH2 [Peptidomimetic 40] | +
10 | Oct-(Lys-βNspe)6-NH2 [Peptidomimetic 35] | +
11 | Oct-[(S)-Aoc]-(Lys-βNphe)6-NH2 [Peptidomimetic 42] | +
12 | Pam-(Lys-βNPhe)6-NH2 [Peptidomimetic 36] | +
13 | Pam-(Lys-βNspe)6-NH2 [Peptidomimetic 34] | +
14 | Pam-[(S)-Aoc]-(Lys-βNphe)6-NH2 [Peptidomimetic 11] | +
15 | R(Tbt)R(NPhe) [Peptidomimetic 39] | +
16 | R(Tbt)R(hPhe)-NH2 [Peptidomimetic 38] | +
17 | VNW(NLys)2VL(NLys)2II(NLys)VA(NLys)-NH2 [Peptidomimetic 30] | +
18 | p-CF3-benzoyl-(Lys-Phe)8-NH2 [Peptidomimetic 23] | +

same assay, conditions: peptidomimetic 0.5 μM + rifampicin 0.5 μg/mL

Row | Substance | Growth in combination with RIF
19 | Ac-(hArg-βNchx)6-NH2 [Peptidomimetic 7] | +
20 | Ac-(hArg-βNchx-Lys-βNspe)3-NH2 [Peptidomimetic 8] | +
21 | Ac-(hArg-βNspe)6-(Trp)2-NH2 [Peptidomimetic 16] | +
22 | Ac-(hArg-βNspe)7-NH2 [Peptidomimetic 4] | +
23 | Ac-[(S)-Aoc]-(Lys-βNPhe)6-NH2 [Peptidomimetic 41] | –
24 | Cin-(Lys-Phe)8-NH2 [Peptidomimetic 24] | +
25 | G(NLys)W(NLys)2II(NLys)VA(NLys)-NH2 [Peptidomimetic 31] | +
26 | Lau-(Lys-βNPhe)6-NH2 [Peptidomimetic 37] | –
27 | Lau-Dap(Lau)-(Lys-βNspe-hArg-βNspe)3-NH2 [Peptidomimetic 40] | +
28 | Oct-(Lys-βNspe)6-NH2 [Peptidomimetic 35] | +
29 | Oct-[(S)-Aoc]-(Lys-βNphe)6-NH2 [Peptidomimetic 42] | +
30 | Pam-(Lys-βNPhe)6-NH2 [Peptidomimetic 36] | +
31 | Pam-(Lys-βNspe)6-NH2 [Peptidomimetic 34] | +
32 | Pam-[(S)-Aoc]-(Lys-βNphe)6-NH2 [Peptidomimetic 11] | +
33 | R(Tbt)R(NPhe) [Peptidomimetic 39] | +
34 | R(Tbt)R(hPhe)-NH2 [Peptidomimetic 38] | +
35 | VNW(NLys)2VL(NLys)2II(NLys)VA(NLys)-NH2 [Peptidomimetic 30] | +
36 | p-CF3-benzoyl-(Lys-Phe)8-NH2 [Peptidomimetic 23] | +

test system: K. pneumoniae ST258; experiment: as above; assay type: cell-based, Klebsiella pneumoniae; design: key to Growth in combination with RIF / Growth in combination with AZM: Growth (+); growth inhibition (–); settings: peptidomimetic 0.5 μM + azithromycin 1 μg/mL
Protocol: as §1

Row | Substance | Growth in combination with AZM
37 | Ac-(hArg-βNchx)6-NH2 [Peptidomimetic 7] | +
38 | Ac-(hArg-βNchx-Lys-βNspe)3-NH2 [Peptidomimetic 8] | +
39 | Ac-(hArg-βNspe)6-(Trp)2-NH2 [Peptidomimetic 16] | +
40 | Ac-(hArg-βNspe)7-NH2 [Peptidomimetic 4] | +
41 | Ac-[(S)-Aoc]-(Lys-βNPhe)6-NH2 [Peptidomimetic 41] | +
42 | Cin-(Lys-Phe)8-NH2 [Peptidomimetic 24] | +
43 | G(NLys)W(NLys)2II(NLys)VA(NLys)-NH2 [Peptidomimetic 31] | +
44 | Lau-(Lys-βNPhe)6-NH2 [Peptidomimetic 37] | +
45 | Lau-Dap(Lau)-(Lys-βNspe-hArg-βNspe)3-NH2 [Peptidomimetic 40] | +
46 | Oct-(Lys-βNspe)6-NH2 [Peptidomimetic 35] | +
47 | Oct-[(S)-Aoc]-(Lys-βNphe)6-NH2 [Peptidomimetic 42] | +
48 | Pam-(Lys-βNPhe)6-NH2 [Peptidomimetic 36] | +
49 | Pam-(Lys-βNspe)6-NH2 [Peptidomimetic 34] | +
50 | Pam-[(S)-Aoc]-(Lys-βNphe)6-NH2 [Peptidomimetic 11] | +
51 | R(Tbt)R(NPhe) [Peptidomimetic 39] | +
52 | R(Tbt)R(hPhe)-NH2 [Peptidomimetic 38] | +
53 | VNW(NLys)2VL(NLys)2II(NLys)VA(NLys)-NH2 [Peptidomimetic 30] | +
54 | p-CF3-benzoyl-(Lys-Phe)8-NH2 [Peptidomimetic 23] | +

same assay, conditions: peptidomimetic 0.5 μM + rifampicin 0.5 μg/mL

Row | Substance | Growth in combination with RIF
55 | Ac-(hArg-βNchx)6-NH2 [Peptidomimetic 7] | +
56 | Ac-(hArg-βNchx-Lys-βNspe)3-NH2 [Peptidomimetic 8] | +
57 | Ac-(hArg-βNspe)6-(Trp)2-NH2 [Peptidomimetic 16] | +
58 | Ac-(hArg-βNspe)7-NH2 [Peptidomimetic 4] | +
59 | Ac-[(S)-Aoc]-(Lys-βNPhe)6-NH2 [Peptidomimetic 41] | +
60 | Cin-(Lys-Phe)8-NH2 [Peptidomimetic 24] | +
61 | G(NLys)W(NLys)2II(NLys)VA(NLys)-NH2 [Peptidomimetic 31] | +
62 | Lau-(Lys-βNPhe)6-NH2 [Peptidomimetic 37] | +
63 | Lau-Dap(Lau)-(Lys-βNspe-hArg-βNspe)3-NH2 [Peptidomimetic 40] | +
64 | Oct-(Lys-βNspe)6-NH2 [Peptidomimetic 35] | +
65 | Oct-[(S)-Aoc]-(Lys-βNphe)6-NH2 [Peptidomimetic 42] | +
66 | Pam-(Lys-βNPhe)6-NH2 [Peptidomimetic 36] | +
67 | Pam-(Lys-βNspe)6-NH2 [Peptidomimetic 34] | +
68 | Pam-[(S)-Aoc]-(Lys-βNphe)6-NH2 [Peptidomimetic 11] | +
69 | R(Tbt)R(NPhe) [Peptidomimetic 39] | +
70 | R(Tbt)R(hPhe)-NH2 [Peptidomimetic 38] | +
71 | VNW(NLys)2VL(NLys)2II(NLys)VA(NLys)-NH2 [Peptidomimetic 30] | +
72 | p-CF3-benzoyl-(Lys-Phe)8-NH2 [Peptidomimetic 23] | +
